Data reported in patent US5601801A, “Radiolabelled angiotensin converting enzyme inhibitors” (Merck Frosst Canada, Inc., priority 1994, dated 1997).
Where two headings read alike, the source gives them in different places.

Assays:
[1] = Imaging of a New Zealand White Rabbit with ^131 I-3; assay type: in vivo; settings: intravenous ear injection
Description: It was thought that this small intestine uptake could be due to a difference in mouse ACE or in its distribution as compared to human ACE. It was decided to carry out this imaging experiment in a rabbit since rabbit ACE is believed to be similar to human ACE. It should be noted that it was rabbit ACE which was used in the IC50 assay.
^131 I-3 prepared as described above was taken up in phosphate buffered saline, the solution was filtered through a 0.2μ Millipore filter, and was introduced into the rabbit by intravenous ear injection followed by imaging of the rabbit.

[2] = Biodistribution of ^131 I-3 in CD-1 Mice, normal and blocked with lisinopril; assay type: in vivo; settings: for tissue uptake at 0.5 h / tissue uptake at 1.5 h / tissue uptake at 3 h / tissue uptake at 6 h: iv, 1 uCi
Protocol: It is well known that there are high ACE concentrations in the lungs, kidneys, pre-optic region of the brain and the blood.^4 Localization of the radioactivity in these organs was expected. […] A blocking study was undertaken to differentiate between specific and non-specific binding.
^131 I-3 was prepared as described above and used in this experiment. The experiment was carried out using male CD-1 mice. The mice were fasted 15 hours prior to injection with 1 μCi of ^131 I-3 by bolus injection into the lateral tail vein. At various times following the dosing, selected mice were sacrificed, exsanguinated and dissected. The desired organs were rinsed, blotted, weighed and counted. For the blocking experiment, mice were treated with 10 μg of lisinopril (by bolus injection into the lateral tail vein) 5 minutes before injection of ^131 I-3.
This blocking experiment was an attempt to differentiate between specific and non-specific binding. […] This is illustrated by the dramatic decrease in radioactivity present in these organs in the blocked biodistribution as compared to the normal biodistribution. […] The anomaly of the first time point has yet to be explained.

[3] = mouse, blood, blocked (lisinopril), read-out: Biodistribution, Blood
[4] = mouse, blood, normal (not blocked), read-out: Biodistribution, Blood
[5] = mouse, contents, blocked (lisinopril), read-out: Biodistribution, Contents
[6] = mouse, contents, normal (not blocked), read-out: Biodistribution, Contents
[7] = mouse, fat, blocked (lisinopril), read-out: Biodistribution, Fat
[8] = mouse, fat, normal (not blocked), read-out: Biodistribution, Fat
[9] = mouse, kidney, blocked (lisinopril), read-out: Biodistribution, Kidney
[10] = mouse, kidney, normal (not blocked), read-out: Biodistribution, Kidney
[11] = mouse, large intestine, blocked (lisinopril), read-out: Biodistribution, lg. Intest.
[12] = mouse, large intestine, normal (not blocked), read-out: Biodistribution, lg. Intest.
[13] = mouse, liver, blocked (lisinopril), read-out: Biodistribution, Liver
[14] = mouse, liver, normal (not blocked), read-out: Biodistribution, Liver
[15] = mouse, lung, blocked (lisinopril), read-out: Biodistribution, Lung
[16] = mouse, lung, normal (not blocked), read-out: Biodistribution, Lung
[17] = mouse, muscle, blocked (lisinopril), read-out: Biodistribution, Muscle
[18] = mouse, muscle, normal (not blocked), read-out: Biodistribution, Muscle
[19] = mouse, small intestine, blocked (lisinopril), read-out: Biodistribution, Sm. Intest.
[20] = mouse, small intestine, normal (not blocked), read-out: Biodistribution, Sm. Intest.
[21] = mouse, stomach, blocked (lisinopril), read-out: Biodistribution, Stomach
[22] = mouse, stomach, normal (not blocked), read-out: Biodistribution, Stomach

kidney uptake, blocked vs normal ([2]; 0.5 hours, pre-injection with lisinopril): slight increase (or no change)
nature of uptake in kidney, lung and small intestine ([2]; blocking experiment): due to specific binding
tissue uptake at 0.5 h ([2]; mouse, blood, 0.5 hours, blocked (lisinopril), read-out: Biodistribution, Blood): 6 %ID/g
tissue uptake at 0.5 h ([2]; mouse, blood, 0.5 hours, normal (not blocked), read-out: Biodistribution, Blood): 5.9 %ID/g
tissue uptake at 1.5 h [2, 3]: 3.2 %ID/g
tissue uptake at 1.5 h [2, 4]: 3.2 %ID/g
tissue uptake at 3 h [2, 3]: 1.3 %ID/g
tissue uptake at 3 h [2, 4]: 3.1 %ID/g
tissue uptake at 6 h [2, 3]: 0.9 %ID/g
tissue uptake at 6 h [2, 4]: 1 %ID/g
tissue uptake at 0.5 h ([2]; mouse, contents, 0.5 hours, blocked (lisinopril), read-out: Biodistribution, Contents): 17.9 %ID/g
tissue uptake at 0.5 h ([2]; mouse, contents, 0.5 hours, normal (not blocked), read-out: Biodistribution, Contents): 21.4 %ID/g
tissue uptake at 1.5 h [2, 5]: 28.5 %ID/g
tissue uptake at 1.5 h [2, 6]: 22.1 %ID/g
tissue uptake at 3 h [2, 5]: 15 %ID/g
tissue uptake at 3 h [2, 6]: 21.4 %ID/g
tissue uptake at 6 h [2, 5]: 48.9 %ID/g
tissue uptake at 6 h [2, 6]: 65.9 %ID/g
tissue uptake at 0.5 h ([2]; mouse, fat, 0.5 hours, blocked (lisinopril), read-out: Biodistribution, Fat): 0.6 %ID/g
tissue uptake at 0.5 h ([2]; mouse, fat, 0.5 hours, normal (not blocked), read-out: Biodistribution, Fat): 0.7 %ID/g
tissue uptake at 1.5 h [2, 7]: 0.5 %ID/g
tissue uptake at 1.5 h [2, 8]: 0.8 %ID/g
tissue uptake at 3 h [2, 7]: 0.2 %ID/g
tissue uptake at 3 h [2, 8]: 0.4 %ID/g
tissue uptake at 6 h [2, 7]: 0.1 %ID/g
tissue uptake at 6 h [2, 8]: 0.2 %ID/g
clearance from small intestine ([2]; mouse, in vivo): quite slow clearance
clearance from the lungs ([2]; mouse, in vivo): rapid clearance from the lungs
uptake in the small intestine ([2]; mouse, in vivo): High uptake in the small intestine
tissue uptake at 0.5 h ([2]; mouse, kidney, 0.5 hours, blocked (lisinopril), read-out: Biodistribution, Kidney): 9.8 %ID/g
tissue uptake at 0.5 h ([2]; mouse, kidney, 0.5 hours, normal (not blocked), read-out: Biodistribution, Kidney): 7.1 %ID/g
tissue uptake at 1.5 h [2, 9]: 2.4 %ID/g
tissue uptake at 1.5 h [2, 10]: 7.1 %ID/g
tissue uptake at 3 h [2, 9]: 1.4 %ID/g
tissue uptake at 3 h [2, 10]: 6.9 %ID/g
tissue uptake at 6 h [2, 9]: 0.5 %ID/g
tissue uptake at 6 h [2, 10]: 9.6 %ID/g
tissue uptake at 0.5 h ([2]; mouse, large intestine, 0.5 hours, blocked (lisinopril), read-out: Biodistribution, lg. Intest.): 1.1 %ID/g
tissue uptake at 0.5 h ([2]; mouse, large intestine, 0.5 hours, normal (not blocked), read-out: Biodistribution, lg. Intest.): 1.5 %ID/g
tissue uptake at 1.5 h [2, 11]: 1.4 %ID/g
tissue uptake at 1.5 h [2, 12]: 1.1 %ID/g
tissue uptake at 3 h [2, 11]: 13.4 %ID/g
tissue uptake at 3 h [2, 12]: 2.6 %ID/g
tissue uptake at 6 h [2, 11]: 14.6 %ID/g
tissue uptake at 6 h [2, 12]: 18.6 %ID/g
tissue uptake at 0.5 h ([2]; mouse, liver, 0.5 hours, blocked (lisinopril), read-out: Biodistribution, Liver): 7.6 %ID/g
tissue uptake at 0.5 h ([2]; mouse, liver, 0.5 hours, normal (not blocked), read-out: Biodistribution, Liver): 7.2 %ID/g
tissue uptake at 1.5 h [2, 13]: 1.4 %ID/g
tissue uptake at 1.5 h [2, 14]: 4.9 %ID/g
tissue uptake at 3 h [2, 13]: 1.9 %ID/g
tissue uptake at 3 h [2, 14]: 3.8 %ID/g
tissue uptake at 6 h [2, 13]: 0.3 %ID/g
tissue uptake at 6 h [2, 14]: 0.8 %ID/g
tissue uptake at 0.5 h ([2]; mouse, lung, 0.5 hours, blocked (lisinopril), read-out: Biodistribution, Lung): 1 %ID/g
tissue uptake at 0.5 h ([2]; mouse, lung, 0.5 hours, normal (not blocked), read-out: Biodistribution, Lung): 4.8 %ID/g
tissue uptake at 1.5 h [2, 15]: 0.6 %ID/g
tissue uptake at 1.5 h [2, 16]: 1.8 %ID/g
tissue uptake at 3 h [2, 15]: 0.5 %ID/g
tissue uptake at 3 h [2, 16]: 1.7 %ID/g
tissue uptake at 6 h [2, 15]: 0.3 %ID/g
tissue uptake at 6 h [2, 16]: 0.5 %ID/g
tissue uptake at 0.5 h ([2]; mouse, muscle, 0.5 hours, blocked (lisinopril), read-out: Biodistribution, Muscle): 1.1 %ID/g
tissue uptake at 0.5 h ([2]; mouse, muscle, 0.5 hours, normal (not blocked), read-out: Biodistribution, Muscle): 1.1 %ID/g
tissue uptake at 1.5 h [2, 17]: 0.4 %ID/g
tissue uptake at 1.5 h [2, 18]: 0.8 %ID/g
tissue uptake at 3 h [2, 17]: 0.3 %ID/g
tissue uptake at 3 h [2, 18]: 0.6 %ID/g
tissue uptake at 6 h [2, 17]: 0.2 %ID/g
tissue uptake at 6 h [2, 18]: 0.3 %ID/g
tissue uptake at 0.5 h ([2]; mouse, small intestine, 0.5 hours, blocked (lisinopril), read-out: Biodistribution, Sm. Intest.): 19.8 %ID/g
tissue uptake at 0.5 h ([2]; mouse, small intestine, 0.5 hours, normal (not blocked), read-out: Biodistribution, Sm. Intest.): 31.9 %ID/g
tissue uptake at 1.5 h [2, 19]: 21.7 %ID/g
tissue uptake at 1.5 h [2, 20]: 27 %ID/g
tissue uptake at 3 h [2, 19]: 14.2 %ID/g
tissue uptake at 3 h [2, 20]: 27 %ID/g
tissue uptake at 6 h [2, 19]: 1.2 %ID/g
tissue uptake at 6 h [2, 20]: 20.1 %ID/g
tissue uptake at 0.5 h ([2]; mouse, stomach, 0.5 hours, blocked (lisinopril), read-out: Biodistribution, Stomach): 24.2 %ID/g
tissue uptake at 0.5 h ([2]; mouse, stomach, 0.5 hours, normal (not blocked), read-out: Biodistribution, Stomach): 25.1 %ID/g
tissue uptake at 1.5 h [2, 21]: 13.3 %ID/g
tissue uptake at 1.5 h [2, 22]: 28.7 %ID/g
tissue uptake at 3 h [2, 21]: 12.8 %ID/g
tissue uptake at 3 h [2, 22]: 14.2 %ID/g
tissue uptake at 6 h [2, 21]: 4.2 %ID/g
tissue uptake at 6 h [2, 22]: 5.1 %ID/g
blocking of uptake in kidney and small intestine ([2]; pre-injection with lisinopril): effectively blocked at all time points
Structure (SMILES): O=C(NCCCC[C@H](N[C@@H](CCc1ccccc1)C(=O)O)C(=O)N1CCC[C@H]1C(=O)O)c1cccc([131I])c1 [^131 I-3, Lisinopril N^ε -radioiodobezamide]
organs imaged [1]: clearly show the lungs and kidneys at early time points, as well as in the bladder at later time points
uptake in kidneys and lungs ([2]; early time points): uptake in the kidneys and lungs at early time points
uptake in all other organs, blocked vs normal ([2]; pre-injection with lisinopril): no difference in uptake between the normal and blocked biodistributions
